From patent publication US20220265635A1, “TREATMENT OF NEUROLOGICAL DISEASE” (Aclipse One Inc., priority 2018, published 2022)

Key:
[1] = system: HSF1 regulated genes; experiment: Example 1 in vivo pharmacodynamic study via subcutaneous dosing: expression of genes upregulated by HSF1 activation; set-up: species or system mouse
Protocol: (§1) Wildtype mice (3 per group) were dosed subcutaneously at 0, 0.5, 1.5, 5 and 10 mg/kg (6aS)-6-methyl-5,6,6a,7-tetrahydro-4H-dibenzo[de,g]quinoline-10,11-diol hydrochloride for 7 days once daily. One animal in the 10 mg/kg dosing group was actually dosed 15 mg/kg on Day 1. To prepare the dosing solutions, (6aS)-6-methyl-5,6,6a,7-tetrahydro-4H-dibenzo[de,g]quinoline-10,11-diol was pre-weighed into bijous and stored in foil.

[2] = system: NRF2; experiment: Example 2 in vivo pharmacodynamic study via subcutaneous dosing, cortex: expression of genes upregulated by NRF2 activation; details: wildtype mouse cortex, 5 mg/kg s.c. once daily 7 days, compared to Gapdh
Protocol: as §1

[3] = system: TDP-43^Q331K mouse model; experiment: Example 4 accelerating rotarod test; assay type: in vivo; details: TDP-43^Q331K mice, 5 mg/kg once daily s.c., one time point (19 weeks of age)
Protocol: (§2) Following genotyping, transgenic females were block randomized into three different dosing groups: vehicle once daily, 2.5 mg/kg (6aS)-6-methyl-5,6,6a,7-tetrahydro-4H-dibenzo[de,g]quinoline-10,11-diol twice daily and 5 mg/kg (6aS)-6-methyl-5,6,6a,7-tetrahydro-4H-dibenzo[de,g]quinoline-10,11-diol once daily. The doses were selected based on results of previous internal studies. Animals were weighed daily before dosing and dosed subcutaneously at 10 ml/kg with a solution of 0.5 mg/ml (6aS)-6-methyl-5,6,6a,7-tetrahydro-4H-dibenzo[de,g]quinoline-10,11-diol for the 5 mg/kg dose and 0.25 mg/ml for the 2.5 mg/kg dose. Where animals were dosed twice a day, the doses were at least 6 hours apart and the dosing solution was freshly made for the second dose of the day.
The study was designed with two main cohorts of mice. One cohort was dosed from 25 days of age until 6 months of age and mice had behavioral testing throughout the study and consisted of 14 mice per group. […]
Mice were tested on the accelerating rotarod (Jones & Roberts for mice, model 7650) once a week from 40 days of age until the end of the study. […] Mice are placed on the rotarod and the time taken to fall from the rotarod (latency to fall) is recorded. For each day of testing, each mouse was tested twice on the rotarod with a small rest in between trials and the best result from the two trials is recorded. […]

[4] = system: TDP-43^Q331K mouse model; experiment: Example 4 electrophysiology: compound muscle action potential (CMAP); assay type: in vivo; details: TDP-43^Q331K mice
Protocol: as §2
(§3) The study was designed with two main cohorts of mice. One cohort was dosed from 25 days of age until 6 months of age and mice had behavioral testing throughout the study and consisted of 14 mice per group. The other satellite cohort was dosed from 25 days of age until 3 months of age, with no behavioral testing and consisted of 6 mice per group for target engagement and histological assessment. Behavioral tests that were carried out during the experiment were: accelerated rotarod test, gait analysis, and electrophysiology.
(§4) Electrophysiological assessment of compound action muscle potential (CMAP) and repetitive stimulation was carried out at 6 weeks, 3 months and 6 months of age.
Mice were anesthetized using gaseous isoflurane and then maintained under gaseous anesthesia using a nose cone for the duration of the experiment. Body temperature was maintained with a heat pad. The fur from the lower left limb was removed using an electric razor followed by hair removal cream in order to allow skin contact of the ring electrodes. Ring electrodes were covered in electrical paste and were placed around the ankle and thigh area of the shaved limb. The rings were tightened so that there were no air gaps between the skin and electrodes but not so tight that blood flow was altered. A grounding electrode was placed into the base of the tail and stimulating electrodes were placed higher on the leg as near as possible to the sciatic nerve.
CMAPs were acquired by pulsing an electrical wave of […] duration to the sciatic notch. The position of the electrodes was tested prior to the final pulse in order to make sure they were placed correctly by visualizing the outcome of the pulse. The stimulation current was then increased until no further increase in CMAP was seen.

[5] = system: TDP-43^Q331K mouse model; experiment: Example 4 electrophysiology: repetitive stimulation; assay type: in vivo; details: TDP-43^Q331K mice
Protocol: as §2, §3, §4
Mice were anesthetized using gaseous isoflurane and then maintained under gaseous anesthesia using a nose cone for the duration of the experiment. Body temperature was maintained with a heat pad. The fur from the lower left limb was removed using an electric razor followed by hair removal cream in order to allow skin contact of the ring electrodes. Ring electrodes were covered in electrical paste and were placed around the ankle and thigh area of the shaved limb. […]
Repetitive stimulation was carried out after the CMAP was calculated. […]

[6] = system: NQO1; experiment: Example 5 western blot protein analysis in induced astrocytes; assay type: cell-based; details: human iAstrocytes (CTR, C9orf72, sALS, SOD1 donors), 10 uM, 48 hours treatment
From the text: Induced NPCs were generated from adult human fibroblasts from patients who had been diagnosed with ALS and from age-matched healthy controls, using an approach reported previously (Kim et al PNAS, […]. 108(19), 7838-7843; Meyer et al., PNAS, 2014. 111(2), 829-832). Induced NPCs are differentiated into induced astrocytes (iAstrocytes) by culturing the progenitors in iAstrocyte medium for a total of 7 days with a medium change at day 3.
Cells were scraped from 10 cm dishes and cell pellets were lysed in ice cold IP lysis buffer (150 mM NaCl, 50 mM HEPES, 1 mM EDTA, 1 mM DTT, 0.5% (v/v) Triton X-100, protease inhibitor cocktail, pH 8.0) for 15 minutes and further homogenized using a 25-gauge needle and syringe. Protein samples were separated by SDS-Polyacrylamide Gel Electrophoresis and then semi-dry transferred onto nitrocellulose membranes. Membranes were blotted with Anti-NQO1—1:1000 (5% milk/TBST); rabbit; abcam; ab34173 at 4° C. overnight and anti-Beta-actin—1:5,000 (5% milk/TBST); mouse; abcam; ab6276 clone AC-15 at 4° C. overnight.

[7] = wildtype mice, 1.5 mg/kg s.c. once daily 7 days, 24 hours post final dose, compared to Actb
[8] = wildtype mice, 5 mg/kg s.c. once daily 7 days, 24 hours post final dose, compared to Gapdh
[9] = wildtype mice, 10 mg/kg s.c. once daily 7 days, 6 hours post final dose, compared to Actb
[10] = wildtype mice, 10 mg/kg s.c. once daily 7 days, 6 hours post final dose, compared to Gapdh

For `CN1CCc2cccc3c2[C@@H]1Cc1ccc(O)c(O)c1-3` [(6aS)-6-methyl-5,6,6a,7-tetrahydro-4H-dibenzo[de,g]quinoline-10,11-diol], the “dose at which HSF1 regulated genes are activated (Hspa1a and Dnajb1 gene inductions)” value ([1]; mice, s.c. once daily 7 days, Example 1) was no less than 0.5 mg/kg, the Hspa1a gene induction [1, 7] was 2.3 fold and the Pgc1a gene induction [1, 7] was 1.7 fold. For the same compound, the Hspa1a gene induction [1, 8] was 2.3 fold, the Pgc1a gene induction [1, 8] was 1.7 fold and the Hspa1a gene induction [1, 9] was 2.0 fold. For the same compound, the Pgc1a gene induction [1, 9] was 1.5 fold, the Dnajb1 gene induction [1, 10] was 1.3 fold and the Hspa1a gene induction [1, 10] was 2.2 fold. For the same compound, the Pgc1a gene induction ([1]; wildtype mice, repeated dose of 5 mg/kg s.c. once daily 7 days, compared to Gapdh (6 hours post final dose per preceding sentence)) was 1.8 fold, the Gclm gene induction ([2]; 6 hours post final dose) was 1.51 fold and the Hmox1 gene induction ([2]; 6 hours post final dose) was 2.02 fold. It also gave a Nqo1 gene induction ([2]; 6 hours post final dose) of 1.04 fold, a Nrf1 gene induction ([2]; 6 hours post final dose) of 2.39 fold and a Pgc1a gene induction ([2]; 6 hours post final dose) of 1.71 fold. It also gave a Gclm gene induction ([2]; 24 hours post final dose) of 1.45 fold, a Hmox1 gene induction ([2]; 24 hours post final dose) of 2.11 fold and a Nqo1 gene induction ([2]; 24 hours post final dose) of 1.32 fold. The Nrf1 gene induction ([2]; 24 hours post final dose) was 1.58 fold, the Pgc1a gene induction ([2]; 24 hours post final dose) was 1.70 fold and the “rotarod performance (latency to fall) compared to vehicle dosed animals” value [3] was “significant increase”. For the same compound, the “relative CMAP at 6 months (based on individual CMAP at 3 months) compared to the vehicle group” value ([4]; 2.5 mg/kg dosing group) was “significant improvement”, the “relative CMAP at 6 months (based on individual CMAP at 3 months) compared to the vehicle group” value ([4]; 5 mg/kg dosing group) was “significant improvement” and the “CMAP compared to the vehicle dosing group” value ([4]; 3 months of age, 5 mg/kg dosing group) was “significant decrease”. For the same compound, the “CMAP compared to vehicle dosed animals” value ([4]; 6 months of age, both dosing groups (2.5 mg/kg twice daily, 5 mg/kg once daily)) was “significant increase”, the “CMAP, between the different dosing groups” value ([4]; 6 weeks of age) was “no significant difference” and the “repetitive stimulation, between the dose groups” value ([5]; 3 months) was “no significant difference”. The “repetitive stimulation response compared to the vehicle dosing group” value ([5]; 6 months of age, 2.5 mg/kg dose group, stimulation numbers 5 and 7) was “significant increase”, the “repetitive stimulation response (percentage of the first stimulation) compared to vehicle” value ([5]; 6 weeks of age, 2.5 mg/kg twice daily, final stimulation, significant difference) was “larger decrease in response” and the “NQO1 protein (western blot quantification) compared to DMSO treatment” value [6] was “significant increase”.
